Measured values: PubChem BioAssay (NCI)
Several values for one entry are separate records, joined by “and”; a condition that tells them apart may be missing. Identical values can stand only once.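 Exposure lasted 48 hours, with cells grown in 96-well plates and compounds tested at five concentrations. The concentration for 50% growth inhibition is given as GI50. TGI is the concentration that stops growth completely.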

Assays:
Assay in all cases: NCI-60 cell line screen, 48 h
SW-620 colon = tested on: SW-620 colon
HCT-116 colon = tested on: HCT-116 colon
OVCAR-4 ovarian = tested on: OVCAR-4 ovarian
NCI/ADR-RES ovarian = tested on: NCI/ADR-RES ovarian
SNB-19 CNS = tested on: SNB-19 CNS
CAKI-1 renal = tested on: CAKI-1 renal
HCC-2998 colon = tested on: HCC-2998 colon
SNB-75 CNS = tested on: SNB-75 CNS
UACC-257 melanoma = tested on: UACC-257 melanoma
A549 NSCLC = tested on: A549 NSCLC

Compound	GI50 (SW-620 colon)	TGI (SW-620 colon)	GI50 (HCT-116 colon) [µM]	TGI (HCT-116 colon) [µM]	GI50 (OVCAR-4 ovarian)	TGI (OVCAR-4 ovarian)	GI50 (NCI/ADR-RES ovarian)	TGI (NCI/ADR-RES ovarian)	GI50 (SNB-19 CNS)	TGI (SNB-19 CNS)	GI50 (CAKI-1 renal)	TGI (CAKI-1 renal)	GI50 (HCC-2998 colon)	TGI (HCC-2998 colon)	GI50 (SNB-75 CNS)	TGI (SNB-75 CNS)	GI50 (UACC-257 melanoma)	TGI (UACC-257 melanoma)	GI50 (A549 NSCLC)	TGI (A549 NSCLC)
CN(c1ccc(C#N)c(Cl)c1)C1CCC(NC(=O)c2ccc(N3CCN(C4CN(c5ccc6c(c5)C(=O)N(C5CCC(=O)NC5=O)C6=O)C4)CC3)cc2)CC1 (stereo not given)	> 100 µM	> 100 µM	> 100	> 100	> 100 µM	> 100 µM	> 100 µM	> 100 µM	> 100 µM	> 100 µM	> 100 µM	> 100 µM	> 100 µM	> 100 µM	> 100 µM	> 100 µM	> 100 µM	> 100 µM	> 100 µM	> 100 µM
Cc1cc(NC(=O)c2cnc(N3CCN(CCOCCOCCOCCOCCC(=O)N[C@H](C(=O)N4C[C@H](O)C[C@H]4C(=O)N[C@@H](C)c4ccc(-c5scnc5C)cc4)C(C)(C)C)CC3)cn2)c2ncccc2c1	2.38 µM	5.65 µM	1.79	3.38	4.49 µM	25 µM	> 100 µM	> 100 µM	3.59 µM	14.7 µM	9.33 µM	> 100 µM	1.75 µM	3.25 µM	2.1 µM	15 µM	2.81 µM	7.97 µM	6.19 µM	> 100 µM
CC1(C)CC2=C(Sc3ccccc3N2)C(=O)C1C(=O)C(=O)Nc1cc(Cl)ccc1Cl (stereo not given)		> 100 µM		> 100		> 100 µM		> 100 µM		> 100 µM		> 100 µM		> 100 µM		> 100 µM		> 100 µM		> 100 µM
CCN(CC)C(=S)SSC(=S)N(CC)CC	16.1 µM and 17 µM	30.4 µM and 32.6 µM	11.4	24.9	13.5 µM and 13 µM	28.9 µM and 26.4 µM	18.1 µM and 17.6 µM	39.9 µM and 37.9 µM	37.4 µM and 76.4 µM	> 75.6 µM and 219 µM	12.6 µM and 20.8 µM	26.3 µM and 77.9 µM	28.7 µM and 31.3 µM	> 67.9 µM and 124 µM	20.7 µM and 18.2 µM	> 56.7 µM and 57.3 µM	35.4 µM and 34.3 µM	> 88.2 µM and 148 µM	25 µM and 33 µM	> 71.9 µM and 146 µM
COc1cc(/C=C/[N+](=O)[O-])cc(OC)c1OC	1.71 µM	4.16 µM	1.89	3.56	3.22 µM	11.5 µM	3.43 µM	36.7 µM	5.64 µM	18.4 µM	1.49 µM	7.39 µM	1.82 µM	3.31 µM	2.4 µM	6.11 µM	2.46 µM	9.83 µM	4.42 µM	19.4 µM
NNc1c2ccccc2nc2ccccc12	4.06 µM	27.4 µM	3.99	17.6	2.62 µM	19.4 µM	3.76 µM	27.4 µM	5.89 µM	> 100 µM	3.29 µM	19.4 µM	7.59 µM	63.2 µM	2.67 µM	17.8 µM	4.06 µM	36.2 µM	5.29 µM	> 100 µM
CCN(C(=O)CN1CCN(c2cc3c(cc2F)c(=O)c(C(=O)O)cn3CC)CC1)c1nc(-c2ccccc2)cs1	0.412 µM	> 100 µM	0.378	> 100	0.347 µM	> 100 µM	0.331 µM	> 100 µM	0.451 µM	> 100 µM	0.312 µM	> 100 µM	0.402 µM	> 100 µM	0.32 µM	> 100 µM	0.307 µM	1.55 µM	0.365 µM	> 100 µM
C[C@H]1c2ccccc2CN1CCCOc1cc2c(cc1OCC1CC1)C1(CCCC1)C(N)=N2	0.977 µM	2.31 µM	0.95	2.26	1.83 µM	7.42 µM	2.84 µM	10.5 µM	5.65 µM	11.8 µM	1.79 µM	7.65 µM	0.931 µM	1.78 µM	0.994 µM	4.86 µM	0.999 µM	2.13 µM	1.94 µM	7.61 µM
CCOC1OC(=O)[C@H]2[C@@H]1[C@@H]1CC[C@H]2O1 (stereo not given in full)	> 100 µM	> 100 µM	> 100	> 100	> 100 µM	> 100 µM	> 100 µM	> 100 µM	> 100 µM	> 100 µM	> 100 µM	> 100 µM	13.4 µM	29.5 µM		> 100 µM	> 100 µM	> 100 µM	> 100 µM	> 100 µM
Cn1nnc2c(C(N)=O)ncn2c1=O		> 100 µM		> 100		> 100 µM		> 100 µM		> 100 µM		> 100 µM		> 100 µM		> 100 µM		> 100 µM		> 100 µM
CN1CCN(c2cc3nc4ccccc4n(-c4ccc(Cl)cc4)c-3cc2=N)CC1	23.9 µM	> 100 µM	22.2	57.2			32.1 µM	> 100 µM	> 100 µM	> 100 µM	24.6 µM	82 µM	23.1 µM	54.9 µM			19.2 µM	39.2 µM	24.1 µM	60.8 µM
OCc1ccc(N2CCCC2)cc1Cl	10.7 µM	> 100 µM	1.6	> 100	1.83 µM	12.3 µM	34.9 µM	> 100 µM	> 100 µM	> 100 µM	14.3 µM	50.3 µM	15.7 µM	69.9 µM	24.5 µM	> 100 µM	0.338 µM	1.28 µM	23.2 µM	> 100 µM
Oc1c(Cl)cc(Cl)c2cccnc12	4.47 µM	18.4 µM	2.97	10.1	2.32 µM	7.85 µM	3.3 µM	> 100 µM	3.73 µM	24.6 µM	2.71 µM	19 µM	10.1 µM	26 µM	6.27 µM	> 100 µM	2.26 µM	7.24 µM	3.49 µM	29.6 µM
